Laboratory results reported in US8192749B2, “Methods of simultaneously treating ocular rosacea and acne rosacea” (priority 2003, dated 2012).
Counter-ions that a name gives are not always drawn.

system: BALB/c 3T3 (CCL-163) cells; details: not given

MPE	PIF 1	PIF 2	mean PIF2	Compound
−0.123	1.0			CC1c2ccc(NC(=O)CN(C)C)c(O)c2C(=O)C2=C(O)C3(O)C(=O)C(C(N)=O)=C(O)CC3C(O)C21 (stereo not shown) [COL 802, 9-dimethylaminoacetamido-4-dedimethylaminodoxycycline]
0.170	5.17	12.87		CN(C)CC(=O)Nc1ccc2c(c1O)C(=O)C1=C(O)C3(O)C(=O)C(C(N)=O)=C(O)CC3CC1C2 (stereo not shown) [COL 309, 9-dimethylaminoacetamido-6-demethyl-6-deoxy-4-dedimethylaminotetracycline]
0.382	40.4			CC1c2cccc(O)c2C(=O)C2=C(O)C3(O)C(=O)C(C(=O)NCN4CCCC4)=C(O)CC3C(O)C21 (stereo not shown) [COL 807, 2-CONHCH2-pyrrolidin-1-yl-4-dedimethylaminodoxycycline]
0.022	1.0			CC1c2ccc(N)c(O)c2C(=O)C2=C(O)C3(O)C(=O)C(C(N)=O)=C(O)CC3C(O)C21 (stereo not shown) [COL 805, 9-amino-4-dedimethylaminodoxycycline]
0.056	1.17			NC(=O)C1=C(O)CC2CC3Cc4c(N)ccc(O)c4C(=O)C3=C(O)C2(O)C1=O (stereo not shown) [COL 307, 7-amino-6-demethyl-6-deoxy-4-dedimethylaminotetracycline]
0.462	80.27	58.22		O=C(NCN1CCCCC1)C1=C(O)CC2CC3Cc4cccc(O)c4C(=O)C3=C(O)C2(O)C1=O (stereo not shown) [COL 313, 2-CONHCH2-piperidin-1-yl-6-demethyl-6-deoxy-4-dedimethylaminotetracycline]
0.387	46.45			CC1c2cccc(O)c2C(=O)C2=C(O)C3(O)C(=O)C(C(=O)NCN4CCCCC4)=C(O)CC3C(O)C21 (stereo not shown) [COL 808, 2-CONHCH2-piperidin-1-yl-4-dedimethylaminodoxycycline]
0.309	5.27	13.82		NC(=O)C1=C(O)CC2CC3Cc4ccc([N+](=O)[O-])c(O)c4C(=O)C3=C(O)C2(O)C1=O (stereo not shown) [COL 303, 9-nitro-6-demethyl-6-deoxy-4-dedimethylaminotetracycline]
0.420				CC(=O)Nc1ccc2c(c1O)C(=O)C1=C(O)C3(O)C(=O)C(C(N)=O)=C(O)CC3CC1C2 (stereo not shown) [COL 305, 9-acetamido-6-demethyl-6-deoxy-4-dedimethylaminotetracycline]
0.420				CC1c2cccc(O)c2C(=O)C2=C(O)C3(O)C(=O)C(C(=O)NCN4CCNCC4)=C(O)CC3C(O)C21 (stereo not shown) [COL 809, 2-CONHCH2-piperazin-1-yl-4-dedimethylaminodoxycycline]
0.040	1.0	1.35	1.35	CN(C)c1cc([N+](=O)[O-])c(O)c2c1CC1CC3CC(O)=C(C(N)=O)C(=O)C3(O)C(O)=C1C2=O (stereo not shown) [COL 1002, 9-nitro-4-dedimethylaminominocycline]
−0.001	1.0			CC(=O)Nc1ccc2c(c1O)C(=O)C1=C(O)C3(O)C(=O)C(C(N)=O)=C(O)CC3C(O)C1C2C (stereo not shown) [COL 801, 9-acetamido-4-dedimethylaminodoxycycline]
0.475	41.1	89.48		O=C(NCN1CCOCC1)C1=C(O)CC2CC3Cc4cccc(O)c4C(=O)C3=C(O)C2(O)C1=O (stereo not shown) [COL 314, 2-CONHCH2-morpholin-1-yl-6-demetlyl-6-deoxy-4-dedimethylaminotetracycline]
0.442	62.67	75.11		O=C(NCN1CCCC1)C1=C(O)CC2CC3Cc4cccc(O)c4C(=O)C3=C(O)C2(O)C1=O (stereo not shown) [COL 312, 2-CONHCH2-pyrrolidin-1-yl-6-demethyl-6-deoxy-4-dedimethylaminotetracycline]
0.276	15.8	35.30		O=C(NCN1CCNCC1)C1=C(O)CC2CC3Cc4cccc(O)c4C(=O)C3=C(O)C2(O)C1=O (stereo not shown) [COL 315, 2-CONHCH2-piperazin-1-yl-6-demethyl-6-deoxy-4-dedimethylaminotetracycline]
0.047				CCCCCCCCCCCCCCCC(=O)Nc1ccc2c(c1O)C(=O)C1=C(O)C3(O)C(=O)C(C(N)=O)=C(O)CC3C(O)C1C2C (stereo not shown) [COL 803, 9-palmitamide-4-dedimethylaminodoxycycline]
0.003	1.0			CC1c2ccc([N+](=O)[O-])c(O)c2C(=O)C2=C(O)C3(O)C(=O)C(C(N)=O)=C(O)CC3C(O)C21 (stereo not shown) [COL 804, 9-nitro-4-dedimethylaminodoxycycline]

Continued, molecule first:

Compound	MPE	PIF 1	PIF 2	mean PIF2
CN(C)C1C(=O)C(C#N)=C(O)C2(O)C(=O)C3=C(O)c4c(O)cccc4C(C)(O)C3CC12 (stereo not shown) [COL 2, tetracyclinonitrile]	0.005			
NC(=O)C1=C(O)C[C@@H]2C[C@@H]3Cc4cccc(O)c4C(=O)C3=C(O)[C@]2(O)C1=O [COL 3, 6-demethyl-6-deoxy-4-dedimethylaminotetracycline]	0.654	647	84.72	
NC(=O)C1=C(O)CC2CC3Cc4ccc(N)c(O)c4C(=O)C3=C(O)C2(O)C1=O (stereo not shown) [COL 308, 9-amino-6-demethyl-6-deoxy-4-dedimethylaminotetracycline]	0.015	1.0		
CC1(O)c2cccc(O)c2C(=O)C2=C(O)C3C(=O)C(C(N)=O)=C(O)CC3CC21 (stereo not drawn) [COL 7, 4-dedimethylamino-12α-deoxytetracycline]	0.531			
CN(C)c1ccc2c(c1O)C(=O)C1=C(O)C3(O)C(=O)C(C(N)=O)=C(O)CC3CC1C2 (stereo not shown) [COL 306, 9-dimethylamino-6-demethyl-6-deoxy-4-dedimethylaminotetracycline]	0.038	1.64	1.56	
NC(=O)C1=C(O)CC2CC3Cc4c([N+](=O)[O-])ccc(O)c4C(=O)C3=C(O)C2(O)C1=O (stereo not shown) [COL 302, 7-nitro-6-demethyl-6-deoxy-4-dedimethylaminotetracycline]	0.378	23.16	23.32	
CN(C)c1ccc(O)c2c1CC1CC3CC(O)=C(C(N)=O)C(=O)C3(O)C(O)=C1C2=O (stereo not shown) [COL 10, 4-dedimethylaminominocycline]	0.099	1.82	2.04	2.04
CC1c2cccc(O)c2C(=O)C2=C(O)C3(O)C(=O)C(C(N)=O)=C(O)CC3C(O)C21 (stereo not shown) [COL 8, 4-dedimethylaminodoxycycline]	0.703	165	82.61	
Cc1c2c(c(O)c3c(O)cccc13)C(=O)C1C(=O)C(C(N)=O)=C(O)CC1C2 (stereo not drawn) [COL 9, 4-de(dimethylamino)-12α-deoxyanhydrotetracycline]	0.546			
C[N+](C)(C)c1ccc(O)c2c1CC1CC3CC(O)=C(C(N)=O)C(=O)C3(O)C(O)=C1C2=O (stereo not shown) [COL 1001, 7-trimethylammonium-4-dedimethylaminosancycline]	0.025			
CC1(O)c2cccc(O)c2C(=O)C2=C(O)C3(O)C(=O)C(C(N)=O)=C(O)CC3CC21 (stereo not shown) [COL 1, 4-dedimethylaminotetracycline]	0.460			
CC1(O)c2cccc(O)c2C(=O)C2=C(O)C3(O)C(=O)C(C(N)=O)=C(O)C(O)C3CC21 (stereo not shown) [COL 6, 4-hydroxy-4-dedimethylaminotetracycline]	0.155			
CCCCCCCCCCCCCCCC(=O)Nc1ccc2c(c1O)C(=O)C1=C(O)C3(O)C(=O)C(C(N)=O)=C(O)CC3CC1C2 (stereo not shown) [COL 311, 9-palmitamide-6-demethyl-6-deoxy-4-dedimethylaminotetracycline]	0.013	1.0		
CC1(O)c2c(Cl)ccc(O)c2C(=O)C2=C(O)C3(O)C(=O)C(C(N)=O)=C(O)CC3CC21 (stereo not shown) [COL 4, 7-chloro-4-dedimethylaminotetracycline]	0.570			

same assay, conditions: mouse

MPE	PIF 2	Compound	PIF 1
0.522	26.71	C[C@H]1c2cccc(O)c2C(=O)C2=C(O)[C@]3(O)C(=O)C(C(N)=O)=C(O)[C@@H](N(C)C)[C@@H]3[C@@H](O)[C@@H]21 [Doxycycline, 6α-deoxy-5-hydroxytetracycline, reference compound]	23.37
0.639	40.38	CN(C)CCCN1c2ccccc2Sc2ccc(Cl)cc21 [Chlorpromazine, reference compound]	

Compound	MPE	PIF 2	PIF 1
CN(C)[C@@H]1C(O)=C(C(N)=O)C(=O)[C@@]2(O)C(O)=C3C(=O)c4c(O)cccc4[C@@](C)(O)[C@H]3C[C@@H]12 [Tetracycline, reference compound]	0.340		5.38

system: not given; details: 250 mg every six hours over a twenty-four hour period; cited from earlier work

Compound	peak plasma concentration
CN(C)[C@@H]1C(O)=C(C(N)=O)C(=O)[C@@]2(O)C(O)=C3C(=O)c4c(O)cccc4[C@@](C)(O)[C@H]3C[C@@H]12 [tetracycline HCl]	approximately 3 μg/ml

system: not given; details: single dose of two 100 mg minocycline HCl tablets, adult humans; cited from earlier work

Compound	average minocycline serum level [µg/mL]
CN(C)c1ccc(O)c2c1C[C@H]1C[C@H]3[C@H](N(C)C)C(O)=C(C(N)=O)C(=O)[C@@]3(O)C(O)=C1C2=O [minocycline HCl]	2.24

system: not given; details: based on steady-state pharmacokinetics; cited from earlier work

Compound	plasma antibiotic threshold level [µg/mL]
CN(C)[C@@H]1C(O)=C(C(N)=O)C(=O)[C@@]2(O)C(O)=C3C(=O)c4c(O)cccc4[C@@](C)(O)[C@H]3C[C@@H]12 [Tetracycline, reference compound]	0.5
